In patent publication US10913736B2 (UNIVERSITY OF WASHINGTON, priority 2014, dated 2021):
“And” between values parts separate entries of the source, which are not always exact repeats. Equal values may be shown once. Read-outs that look alike come from different tables or passages of the source.

Assays:
[1] = target: MetRS (T. brucei) (Trypanosoma brucei brucei, UniProt Q38C91); assay: MetRS (T. brucei) ATP depletion assay using Kinase-Glo; format: biochemical
[2] = target: MetRS (S. aureus) (Staphylococcus aureus, UniProt Q5HII6); assay: biochemical; conditions: ATP depletion, Kinase-Glo; read-out: H) MetRS (S. aureus) ATP depletion assay using Kinase-Glo with modified cpd dilution method, IC50
[3] = system: T. cruzi; assay: T. cruzi growth inhibition EC50; format: cell-based; conditions: Trypanosoma cruzi; read-out: C) T. cruzi EC50
[4] = system: T. brucei; assay: Growth inhibition assay of T. brucei cell cultures (Alamar Blue, 48 h); format: cell-based
[5] = Trypanosoma brucei; read-out: B) T. brucei EC50

Sequence of MetRS (S. aureus) (Q5HII6 whole entry): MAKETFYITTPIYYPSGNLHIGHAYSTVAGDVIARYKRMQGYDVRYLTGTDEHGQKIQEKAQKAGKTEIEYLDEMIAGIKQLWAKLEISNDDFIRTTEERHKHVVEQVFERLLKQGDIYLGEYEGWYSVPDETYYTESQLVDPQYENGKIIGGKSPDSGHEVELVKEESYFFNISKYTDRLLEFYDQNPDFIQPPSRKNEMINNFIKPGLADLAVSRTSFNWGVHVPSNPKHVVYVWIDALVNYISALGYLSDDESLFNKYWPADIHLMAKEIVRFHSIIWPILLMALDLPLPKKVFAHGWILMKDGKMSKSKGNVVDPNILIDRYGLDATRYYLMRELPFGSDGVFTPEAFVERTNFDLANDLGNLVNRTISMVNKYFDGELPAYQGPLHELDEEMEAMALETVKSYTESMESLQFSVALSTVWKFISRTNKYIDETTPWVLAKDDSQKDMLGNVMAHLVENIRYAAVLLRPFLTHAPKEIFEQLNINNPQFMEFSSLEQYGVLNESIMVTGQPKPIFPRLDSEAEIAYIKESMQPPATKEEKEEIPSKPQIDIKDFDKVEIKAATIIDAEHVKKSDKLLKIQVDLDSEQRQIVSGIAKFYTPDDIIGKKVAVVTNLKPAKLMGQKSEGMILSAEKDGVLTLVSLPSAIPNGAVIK
Sequence of MetRS (T. brucei) (Q38C91 entry or part of it): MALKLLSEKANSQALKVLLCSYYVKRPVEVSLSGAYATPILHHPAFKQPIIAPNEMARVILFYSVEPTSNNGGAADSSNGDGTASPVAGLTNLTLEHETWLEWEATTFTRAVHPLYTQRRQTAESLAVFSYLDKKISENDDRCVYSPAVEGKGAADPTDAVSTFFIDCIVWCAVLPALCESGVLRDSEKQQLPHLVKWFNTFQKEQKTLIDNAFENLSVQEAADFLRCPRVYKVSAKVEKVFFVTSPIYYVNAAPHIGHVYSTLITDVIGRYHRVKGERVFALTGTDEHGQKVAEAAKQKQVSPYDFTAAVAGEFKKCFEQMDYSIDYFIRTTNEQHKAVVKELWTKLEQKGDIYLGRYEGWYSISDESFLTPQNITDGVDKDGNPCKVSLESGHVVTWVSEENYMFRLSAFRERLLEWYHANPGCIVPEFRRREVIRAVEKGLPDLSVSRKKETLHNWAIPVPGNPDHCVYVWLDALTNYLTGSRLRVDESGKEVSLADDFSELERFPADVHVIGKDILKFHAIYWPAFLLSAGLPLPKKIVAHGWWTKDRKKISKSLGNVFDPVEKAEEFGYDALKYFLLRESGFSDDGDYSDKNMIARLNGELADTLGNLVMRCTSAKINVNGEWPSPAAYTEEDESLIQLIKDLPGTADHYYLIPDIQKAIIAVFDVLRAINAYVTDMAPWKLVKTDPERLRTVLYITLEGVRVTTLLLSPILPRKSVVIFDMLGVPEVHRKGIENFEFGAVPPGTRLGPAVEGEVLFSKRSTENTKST

SMILES | IC50 [1] | IC50 [2] [nM] | EC50 [3] [µM] | EC50 [4, 5] [nM] | EC50 ([4]; read-out: B) T. brucei EC50) [nM]
CC(=O)N(CCN(C)c1nc2nc(Cl)ccc2[nH]1)[C@@H]1CCNc2c(Cl)cc(Cl)cc21 [Compound 1938, N-[2-({5-chloro-3H-imidazo[4,5-b]pyridin-2-yl}(methyl)amino)ethyl]-N-[(4R)-6,8-dichloro-1,2,3,4-tetrahydroquinolin-4-yl]acetamide] | 36 nM | 1260 | 0.266 | – | –
CC(=O)N(Cc1cc(Cl)cc(Cl)c1)C1CCCC(c2nc3nc(F)ccc3[nH]2)C1 (stereo not drawn) [Compound 1801, N-(3,5-dichlorobenzyl)-N-(3-(5-fluoro-1H-imidazo[4,5-b]pyridin-2-yl)cyclohexyl)acetamide] | 533 nM and 569 nM | – | 0.252 | – | –
Clc1ccc(CNC2CCCC(c3nc4nc(Cl)ccc4[nH]3)C2)c(Cl)c1 (stereo not drawn) [Compound 1809, 3-(5-chloro-1H-imidazo[4,5-b]pyridin-2-yl)-N-(2,4-dichlorobenzyl) cyclohexanamine] | 43 nM | – | 3.46 | 821 | –
CN(CCN(CCN(C)c1nc2nc(F)ccc2[nH]1)[C@@H]1CCNc2c(Cl)cc(Cl)cc21)c1nc2nc(F)ccc2[nH]1 [Compound 1939, (R)—N1-(6,8-dichloro-1,2,3,4-tetrahydroquinolin-4-yl)-N2-(5-fluoro-1H-imidazo[4,5-b]pyridin-2-yl)-N1-(2-((5-fluoro-1H-imidazo[4,5-b]pyridin-2-yl)(methyl)amino)ethyl)-N2-methylethane-1,2-diamine] | 73 nM | 271 | 0.176 | – | –
Clc1cc(Cl)cc(CNC2CCCN(c3nc4nc(Cl)ccc4[nH]3)C2)c1 (stereo not drawn) [Compound 1811, 1-(5-chloro-1H-imidazo[4,5-b]pyridin-2-yl)-N-(3,5-dichlorobenzyl) piperidin-3-amine] | 8 nM | 709 | 2.51 | 81.8 | –
Clc1cc(Cl)cc(CNCCc2nc3ncc(Cl)cc3[nH]2)c1 [Compound 1844, (2-{6-chloro-3H-imidazo[4,5-b]pyridin-2-yl}ethyl)[(3,5-dichlorophenyl)methyl]amine] | 60 nM | – | 5.42 | 598 | –
C[C@@H](Cc1nc2ccc(Cl)cc2[nH]1)NCc1cc(Cl)cc(Cl)c1 [Compound 1805, [(2S)-1-(6-chloro-1H-1,3-benzodiazol-2-yl)propan-2-yl][(3,5-dichlorophenyl)methyl]amine] | 56 nM and 27 nM | > 1000 | 5.61 | 1690 | –
O=C1N[C@@H](Cc2ccc(Cl)cc2Cl)C(=O)N1Cc1nc2ccccc2[nH]1 [Compound 1754, (S)-3-((1H-benzo[d]imidazol-2-yl)methyl)-5-(2,4-dichlorobenzyl)imidazolidine-2,4-dione] | > 10000 nM | – | > 5 | 5890 | –
Clc1cc(Cl)cc(CNC2CCCC(c3nc4nc(Cl)ccc4[nH]3)C2)c1 (stereo not drawn) [Compound 1788, 3-(5-chloro-1H-imidazo[4,5-b]pyridin-2-yl)-N-(3,5-dichlorobenzyl)cyclohexanamine] | 124 nM | – | 4.17 | 359 | –
CCN(CCNCc1cc(Cl)cc(Cl)c1)c1nc2nc(Cl)ccc2[nH]1 [Compound 1949, 5-chloro-N-(2-{[(3,5-dichlorophenyl)methyl]amino}ethyl)-N-ethyl-3H-imidazo[4,5-b]pyridin-2-amine] | 18 nM | 606 | 1.31 | 79.9 | 85.5
Fc1ccc2[nH]c(N3CCCC(NCc4cc(Cl)cc(Cl)c4)C3)nc2n1 (stereo not drawn) [Compound 1886, N-(3,5-dichlorobenzyl)-1-(5-fluoro-1H-imidazo[4,5-b]pyridin-2-yl) piperidin-3-amine] | 14 nM | 505 | 5.16 | 299 | –
N#Cc1c(NCCCNCc2cc(Cl)cc(Cl)c2)[nH]c2cccnc12 [Compound 1627, 2-(3-(3,5-dichlorobenzylamino)propylamino)-1H-pyrrolo[3,2-b]pyridine-3-carbonitrile] | 61 nM | – | 0.623 | > 9.08 | 4.6
COc1ccc(Oc2nc(NCc3nc4ccc(F)nc4[nH]3)nc(Oc3ccc(OC)cc3Cl)n2)c(Cl)c1 [Compound 1884, 4,6-bis(2-chloro-4-methoxyphenoxy)-N-({5-fluoro-3H-imidazo[4,5-b]pyridin-2-yl}methyl)-1,3,5-triazin-2-amine] | 24 nM | 122 | 0.773 | 55.9 | –
CC(=O)N(CCN(C)c1nc2ccc(Cl)nc2[nH]1)Cc1cc(Cl)cc(Cl)c1 [Compound 1926, N-(3,5-dichlorobenzyl)-N-(2-(5-chloro-N-methyl-1H-imidazo[4,5-b]pyridin-2-ylamino)ethyl)acetamide] | 20 nM | 172 | 1.33 | 75.5 | –
Clc1cc(Cl)cc(CNCCCc2nc3ccc(Cl)nc3[nH]2)c1 [Compound 1881, (3-{5-chloro-3H-imidazo[4,5-b]pyridin-2-yl}propyl)[(3,5-dichlorophenyl)methyl]amine] | 35 nM | – | 5.87 | 307 | –
N#Cc1cc(Cl)cc(CN[C@H]2CCCN(c3nc4nc(Cl)ccc4[nH]3)C2)c1 [Compound 1992, (S)-3-chloro-5-(((1-(5-chloro-1H-imidazo[4,5-b]pyridin-2-yl)piperidin-3-yl)amino)methyl)benzonitrile] | 14 nM | – | 2.13 | 111 | –

SMILES | IC50 [1] | IC50 [2] [nM] | EC50 [3] [µM] | EC50 [4, 5] [nM] | EC50 ([4]; read-out: B) T. brucei EC50) [nM]
Clc1cc(Cl)cc(CNCCNc2nc3ccc(Cl)cc3[nH]2)c1 [Compound 1829, {2-[(6-chloro-1H-1,3-benzodiazol-2-yl)amino]ethyl}[(3,5-dichlorophenyl)methyl]amine] | 85 nM | – | 3.04 | 539 | –
Clc1cc(Cl)cc(NC[C@@H]2CCCN(c3nc4nc(Cl)ccc4[nH]3)C2)c1 [Compound 1923, (S)-3,5-dichloro-N-((1-(5-chloro-1H-imidazo[4,5-b]pyridin-2-yl)piperidin-3-yl)methyl)aniline] | 32 nM | 504 | – | 566 | –
CC(=O)N(CCCc1nc2nc(F)ccc2[nH]1)Cc1cc(Cl)cc(Cl)c1 [Compound 1835, N-(3,5-dichlorobenzyl)-N-(3-(5-fluoro-1H-imidazo[4,5-b]pyridin-2-yl)propyl)acetamide] | 23 nM | – | > 20 | 873 | –
O=C(Cc1cc(Cl)cc(Cl)c1)NCc1nc2ccc(Cl)nc2[nH]1 [Compound 1875, N-({5-chloro-3H-imidazo[4,5-b]pyridin-2-yl}methyl)-2-(3,5-dichlorophenyl)acetamide] | 38 nM | – | 13.1 | 1900 | –
Cc1ccc2[nH]c(NCCCNCc3cc(Cl)cc(Cl)c3)nc2n1 [Compound 1599, N1-(3,5-dichlorobenzyl)-N3-(5-methyl-1H-imidazo[4,5-b]pyridin-2-yl)propane-1,3-diamine] | 45 nM and 59 nM | – | 2.91 | 662 | –
NN(C(=O)/C=C/Oc1ccc(Cl)cc1Cl)c1nc2ccccc2[nH]1 [Compound 1766, (2E)-N-(1H-1,3-benzodiazol-2-yl)-3-(2,4-dichlorophenoxy)prop-2-enehydrazide] | 297 nM | – | > 5 | 3530 | –
Fc1ccc2nc(NCCCNc3cc(Cl)cc(Cl)c3)[nH]c2n1 [Compound 1954, 3,5-dichloro-N-[3-({5-fluoro-3H-imidazo[4,5-b]pyridin-2-yl}amino)propyl]aniline] | 61 nM | 928 | – | 369 | 565
O=C(CCOc1ccc(Cl)cc1Cl)NCc1nc2ccc(F)nc2[nH]1 [Compound 1705, 3-(2,4-dichlorophenoxy)-N-({5-fluoro-3H-imidazo[4,5-b]pyridin-2-yl}methyl)propanamide] | 100 nM | 1690 | – | 8840 | –
Oc1c(Cl)cc(Cl)cc1CN[C@H]1CCCN(c2nc3nc(Cl)ccc3[nH]2)C1 [Compound 1921] | 25 nM | 1570 | – | 241 | –
CCC(=O)N(CCN(C)c1nc2nc(Cl)ccc2[nH]1)Cc1cc(Cl)cc(Cl)c1 [Compound 1942, N-(3,5-dichlorobenzyl)-N-(2-(5-chloro-N-methyl-1H-imidazo[4,5-b]pyridin-2-ylamino)ethyl)propionamide] | 20 nM | 104 | – | 145 | –
O=C(NCc1nc2cccnc2[nH]1)OCCc1ccc(Cl)cc1Cl [Compound 1706, 2-(2,4-dichlorophenyl)ethyl N-{3H-imidazo[4,5-b]pyridin-2-ylmethyl}carbamate] | 38 nM | 83 | – | 2760 | –
OC(CNCc1cc(Cl)cc(Cl)c1)CNc1nc2cccnc2[nH]1 (stereo not drawn) [Compound 1634, 1-((1H-imidazo[4,5-b]pyridin-2-yl)amino)-3-((3,5-dichlorobenzyl)amino)propan-2-ol] | 133 nM | – | 9.76 | 121 | –
Clc1cc(Cl)c2c(c1)C(N[C@H]1CCCN(c3nc4nc(Cl)ccc4[nH]3)C1)CCN2 (stereo partly drawn) [Compound 1899, 6,8-dichloro-N—((S)-1-(5-chloro-1H-imidazo[4,5-b]pyridin-2-yl)piperidin-3-yl)-1,2,3,4-tetrahydroquinolin-4-amine] | 89 nM | 323 | 0.26 | – | –
CC(=O)N(Cc1cc(Cl)cc(Cl)c1)C1CCCC(c2nc3nc(Cl)ccc3[nH]2)C1 (stereo not drawn) [Compound 1789, N-(3-(5-chloro-1H-imidazo[4,5-b]pyridin-2-yl)cyclohexyl)-N-(3,5-dichlorobenzyl)acetamide] | 89 nM | – | 4.99 | 2810 | –
CN(CCN(Cc1cc(Cl)cc(Cl)c1)C(=O)CCN)c1nc2nc(Cl)ccc2[nH]1 [Compound 1958, 3-amino-N-[2-({5-chloro-1H-imidazo[4,5-b]pyridin-2-yl}(methyl)amino)ethyl]-N-[(3,5-dichlorophenyl)methyl]propanamide] | 13 nM | 381 | – | 62.4 | 33.1
